Laboratory results reported in patent US5849695A, “Parathyroid hormone analogues useful for treatment of osteoporosis and disorders of calcium meatabolism in mammals” (The Regents of the University of California, priority 1993, dated 1998).
Like-named read-outs stand apart in the source and are kept apart here.

How the values were obtained:
PTH receptor [1] = molecular target: T1, PTH receptor (Canis lupus familiaris, UniProt Q9TU31); assay type: binding, canine
T1 construct: canine renal plasma membranes; from tissue; host or cells: canine kidney (renal plasma membranes)
T1 sequence (Q9TU31 29-595): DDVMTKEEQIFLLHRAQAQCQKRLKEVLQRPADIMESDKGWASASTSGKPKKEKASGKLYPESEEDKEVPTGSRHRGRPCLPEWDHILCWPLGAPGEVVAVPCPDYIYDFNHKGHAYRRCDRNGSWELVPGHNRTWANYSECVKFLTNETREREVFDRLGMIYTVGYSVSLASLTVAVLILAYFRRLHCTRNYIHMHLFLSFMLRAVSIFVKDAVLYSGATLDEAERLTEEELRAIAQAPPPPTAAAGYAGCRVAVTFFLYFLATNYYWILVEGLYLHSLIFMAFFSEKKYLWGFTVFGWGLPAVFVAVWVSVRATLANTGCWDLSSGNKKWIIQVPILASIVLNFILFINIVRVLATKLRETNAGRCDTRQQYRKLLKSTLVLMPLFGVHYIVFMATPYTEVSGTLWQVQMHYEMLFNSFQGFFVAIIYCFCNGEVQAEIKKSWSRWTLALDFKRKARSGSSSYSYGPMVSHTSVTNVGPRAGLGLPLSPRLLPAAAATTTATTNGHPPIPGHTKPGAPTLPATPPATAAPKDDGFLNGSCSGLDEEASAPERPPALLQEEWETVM
Protocol: (§1) Receptor binding assays were carried out in canine renal plasma membranes and in UMR 106-H5 rat osteosarcoma cells as previously described in detail (Ref. 14,32), using ^125 I-labeled PTH(1-34)amide as the radioligand. Binding potency (IC50) was quantified as the concentration of unlabeled peptide required for half-maximal displacement of the radioligand. […] Adenylate cyclase activity was assessed in canine renal membranes by the conversion of [α-32p ] ATP to [^32 P] cyclic AMP, essentially as described, except for the addition of 100 micromolar GTP (Ref. 33,34). Adenylate cyclase activity in UMR 106-H5 cells was assessed essentially as described (Ref. 35). In brief, cells were incubated with [3H]adenine 1 micro Ci/ml of serum-free MEM for two hours at 37° C. to label the endogenous ATP pool. Cells were then exposed to 0.4 mM IBMX for 10 min, followed by the appropriate peptide for an additional 10 min at ambient temperature. The cells are then scraped in 20% TCA, and [3H]cyclic AMP is isolated by the column procedure of Salomon et al. (Ref. 36). Potency in the adenylate cyclase assays (Ka) is the concentration of peptide producing half-maximal enzyme activation.

PTH receptor [2] = molecular target: T1, PTH receptor; assay type: biochemical, canine; conditions: for RENAL MEMBRANES Canine Activity (AC*): maximally effective dose; for antagonism of PTH-stimulated adenylate cyclase: canine renal plasma membranes and UMR 106-H5 cells (FIG. 8)
Protocol: as §1

PTH receptor [3] = molecular target: T2, PTH receptor (Rattus norvegicus, UniProt P25961); assay type: binding
T2 construct: endogenous in cells; host or cells: UMR 106-H5 rat osteosarcoma cells
T2 sequence (P25961 27-591): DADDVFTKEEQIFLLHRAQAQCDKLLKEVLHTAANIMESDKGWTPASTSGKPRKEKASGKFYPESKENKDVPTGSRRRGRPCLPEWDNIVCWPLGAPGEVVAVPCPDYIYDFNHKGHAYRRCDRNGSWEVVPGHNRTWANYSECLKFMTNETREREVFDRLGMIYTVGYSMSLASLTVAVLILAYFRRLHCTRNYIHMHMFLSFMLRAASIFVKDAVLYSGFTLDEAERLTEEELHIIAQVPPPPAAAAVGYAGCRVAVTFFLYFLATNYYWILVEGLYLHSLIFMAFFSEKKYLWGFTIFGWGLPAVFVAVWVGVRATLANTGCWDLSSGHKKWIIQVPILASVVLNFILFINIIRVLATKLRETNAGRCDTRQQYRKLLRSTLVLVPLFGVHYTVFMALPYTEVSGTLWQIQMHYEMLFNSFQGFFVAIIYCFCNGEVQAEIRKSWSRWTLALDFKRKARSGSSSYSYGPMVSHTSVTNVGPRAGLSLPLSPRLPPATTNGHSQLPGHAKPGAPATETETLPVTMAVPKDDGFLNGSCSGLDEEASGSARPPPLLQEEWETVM
Protocol: as §1

PTH receptor [4] = molecular target: T2, PTH receptor; assay type: cell-based; conditions: for UMR106-H5 CELLS Rat Bone Activity (AC*): maximally effective dose
Protocol: as §1, with “Assays were conducted using […] cells. These assays were performed as described in Cohen et al. (1991), J. Biological Chem., 266(3), 1997 and in the Experimental section, e.g. Example 11. Receptor” for “Receptor”

PTH receptor [5] = molecular target: T3, PTH receptor (Homo sapiens, UniProt Q03431); assay type: cell-based; parameters: In intact rat (UMR-106) and human (SaOS-2) bone cell lines; endogenous in cells; host or cells: SaOS-2 human bone (osteosarcoma) cells
T3 sequence (Q03431 27-593): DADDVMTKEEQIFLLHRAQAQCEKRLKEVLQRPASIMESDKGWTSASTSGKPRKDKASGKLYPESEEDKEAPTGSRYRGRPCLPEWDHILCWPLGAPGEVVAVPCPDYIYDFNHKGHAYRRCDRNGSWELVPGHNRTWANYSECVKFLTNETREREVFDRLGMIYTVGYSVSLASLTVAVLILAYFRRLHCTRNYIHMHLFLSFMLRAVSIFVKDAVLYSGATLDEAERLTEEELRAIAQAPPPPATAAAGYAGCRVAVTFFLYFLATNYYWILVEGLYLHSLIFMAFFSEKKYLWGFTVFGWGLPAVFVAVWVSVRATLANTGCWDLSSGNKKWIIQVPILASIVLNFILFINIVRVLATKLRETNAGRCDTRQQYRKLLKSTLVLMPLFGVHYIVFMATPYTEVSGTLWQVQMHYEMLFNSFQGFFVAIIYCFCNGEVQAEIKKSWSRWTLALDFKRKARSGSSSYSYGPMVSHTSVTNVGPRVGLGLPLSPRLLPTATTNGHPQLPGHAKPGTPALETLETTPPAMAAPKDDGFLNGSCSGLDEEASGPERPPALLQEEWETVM
Description: The renal membrane assay values listed reflect the effect of the polypeptide analogue with kidney tissue receptors. The UMR-106-H5 assay values reflect the effect of the peptide analogue with rat bone tissue receptors. The Sa05-2 assay values reflect the effect of the peptides for human bone tissue receptors.

[6] = Circular dichroism: alpha-helical content; assay type: physicochemical; conditions: for % HELIX TFE (30%) / % HELIX TFE (0%): Table 1, CD; for % HELIX TFE (30%): 30% trifluoroethanol; for % HELIX TFE (0%): absence of trifluoroethanol
Protocol: Far ultraviolet circular dichroism (CD) spectra were obtained in phosphate buffer (ph 7.0) at 25±1° C. in a 1.0 mm cell on an Instruments SA Jobin Yvon circular dichrograph calibrated with (+) 10-camphorsulfonic acid and epiandosterone. Peptides were analyzed at concentrations ranging from 0.1-0.3 mg/ml. The mean molar ellipticity per residue at 222 nm ([⊖]222 nm-, deg cm^2 /dmol) was used to derive estimates of alpha-helicity according to the method of Taylor and Kaiser (ref. 29).

[7] = Table 1, relative to bPTH(1-34) = 100%
[8] = Table 1, half-maximal enzyme activation, relative to bPTH(1-34) = 100%

Compound	RENAL MEMBRANES Canine Activity (AC*) (PTH receptor [2]; [7]) [%]	UMR106-H5 CELLS Rat Bone Activity (AC*) (PTH receptor [4]; [7]) [%]	RENAL MEMBRANES Canine Potency (B) (PTH receptor [1]; [7]) [%]	RENAL MEMBRANES Canine Potency (AC) (PTH receptor [2]; [8]) [%]	UMR106-H5 CELLS Rat Bone Potency (B) (PTH receptor [3]; [7]) [%]	UMR106-H5 CELLS Rat Bone Potency (AC) (PTH receptor [4]; [7]) [%]	% HELIX TFE (30%) [6] [%]	% HELIX TFE (0%) [6] [%]	other results
CC[C@H](C)[C@H](NC(=O)[C@H](CCC(=O)O)NC(=O)[C@H](CO)NC(=O)[C@@H](NC(=O)[C@H](C)N)C(C)C)C(=O)N[C@@H](CCC(N)=O)C(=O)N[C@@H](Cc1ccccc1)C(=O)N[C@@H](CCSC)C(=O)N[C@@H](Cc1c[nH]cn1)C(=O)N[C@@H](CC(N)=O)C(=O)N[C@@H](CC(C)C)C(=O)NCC(=O)N[C@@H](CCCCN)C(=O)N[C@@H](Cc1c[nH]cn1)C(=O)N[C@@H](CC(C)C)C(=O)N[C@@H](CO)C(=O)N[C@@H](CO)C(=O)N[C@@H](CCSC)C(=O)N[C@@H](CCC(=O)O)C(=O)N[C@@H](CCCNC(=N)N)C(=O)N[C@H](C(=O)N[C@@H](CCC(=O)O)C(=O)N[C@@H](Cc1c[nH]c2ccccc12)C(=O)N[C@@H](CC(C)C)C(=O)N[C@@H](CCCNC(=N)N)C(=O)N[C@@H](CCCCN)C(=O)N[C@@H](CCCCN)C(=O)N[C@@H](CC(C)C)C(=O)N[C@@H](CCC(N)=O)C(=O)N[C@@H](CC(=O)O)C(=O)N[C@H](C(=O)N[C@@H](Cc1c[nH]cn1)C(=O)N[C@@H](CC(N)=O)C(=O)N[C@@H](Cc1ccccc1)C(=O)O)C(C)C)C(C)C [bPTH (1-34), bPTH(1-34), reference compound]	100	100							RENAL MEMBRANES Canine Potency (B) (PTH receptor [1]): 100%; RENAL MEMBRANES Canine Potency (AC) (PTH receptor [2]): 100%; UMR106-H5 CELLS Rat Bone Potency (B) (PTH receptor [3]): 100%; UMR106-H5 CELLS Rat Bone Potency (AC) (PTH receptor [4]): 100%
[Ala^6 ]bPTH(1-34)									potency in human bone cells versus renal membranes (PTH receptor [5]; human bone cells and renal membranes): equipotent
[Glu^3 ]bPTH(1-34)									retention of binding potency / receptor binding activity (PTH receptor [1]; relative to bPTH(1-34), similar in the kidney and bone systems): less than 0.1%; calculated alpha-helical content ([6]; aqueous solvent conditions): 19%
[His^3 ]bPTH(1-34)	100	100	55	2.5	9	75	84	35	potency for adenylate cyclase activation compared with renal adenylate cyclase (PTH receptor [4]; UMR-106-H5 cells): increased potency
[Lys^3 ]bPTH(1-34)	78	95	14	1.5	3.5	14	81	29	bioactivity in bone cell assays versus kidney (PTH receptor [4]; both bone cell assays): enhanced bioactivity; SAOS2 CELLS Human Bone Activity (AC) (PTH receptor [5]; [7]): 100%; SAOS2 CELLS Human Bone Potency (AC) (PTH receptor [5]; [7]): 20%
[Phe^3 ]bPTH(1-34)									antagonism of PTH-stimulated adenylate cyclase (PTH receptor [2]): partial PTH antagonists
[Phe^6 ]bPTH(1-34)									binding activity retained, of the activity of bPTH(1-34) (PTH receptor [1]; renal membranes): 1%; antagonism of PTH-stimulated adenylate cyclase (PTH receptor [2]): inhibition; antagonism of PTH-stimulated adenylate cyclase (PTH receptor [2]; listed as [Phe^6 ]PTH(1-34)): partial PTH antagonists; binding activity retained, of the activity of bPTH(1-34) (PTH receptor [3]; osteosarcoma cells): 4%
[Tyr^3 ]bPTH(1-34)	28	100	2	1.2	0.9	2.5	99	34	agonist behaviour in the adenylate cyclase assay (PTH receptor [2]; both the bone and kidney systems): partial agonist activity; activity in adenylate cyclase compared with renal adenylate cyclase (PTH receptor [4]; UMR-106-H5 cells): increased activity
